± gives the expanded uncertainty stated by the source.
Assays:
[1] = for mass density: 101.33 kPa, Liquid, Vibrating tube method; for Normal melting temperature: Crystal, Phase equilibration
[2] = refractive index (Na D-line) (dimensionless); settings: 101.33 kPa, Liquid, Standard Abbe refractometry
[3] = refractive index (Na D-line) (dimensionless); xn = mol fraction of the nth substance listed; settings: 101.3 kPa, Liquid, Standard Abbe refractometry
[4] = xn = mol fraction of the nth substance listed; settings: 101.3 kPa, Liquid, Vibrating tube method

SMILES: O=S1OCCO1 [1,3,2-dioxathiolane, 2-oxide]
- mass density ([1]; 298.15 K): 1432.17 ± 0.23 kg/m3
- Normal melting temperature [1]: -17.01 ± 0.77 °C
- refractive index ([2]; 298.15 K): 1.4449 ± 0.0004

SMILES: O=S1OCCO1 [1,3,2-dioxathiolane, 2-oxide] + CCOC(=O)OC
- refractive index ([3]; 298.15 K, x2 = 0.0498): 1.4405 ± 0.0004
- refractive index ([3]; 298.15 K, x2 = 0.0994): 1.4361 ± 0.0004
- refractive index ([3]; 298.15 K, x2 = 0.1993): 1.4279 ± 0.0004
- refractive index ([3]; 298.15 K, x2 = 0.2998): 1.42 ± 0.0004
- refractive index ([3]; 298.15 K, x2 = 0.3996): 1.4127 ± 0.0004
- refractive index ([3]; 298.15 K, x2 = 0.5008): 1.4056 ± 0.0004
- refractive index ([3]; 298.15 K, x2 = 0.5995): 1.3991 ± 0.0004
- refractive index ([3]; 298.15 K, x2 = 0.7001): 1.3927 ± 0.0004
- refractive index ([3]; 298.15 K, x2 = 0.8002): 1.3867 ± 0.0004
- refractive index ([3]; 298.15 K, x2 = 0.8995): 1.381 ± 0.0004
- refractive index ([3]; 298.15 K, x2 = 0.9501): 1.3782 ± 0.0004
- mass density ([4]; 298.15 K, x2 = 0.0498): 1404.65 ± 0.58 kg/m3
- mass density ([4]; 298.15 K, x2 = 0.0994): 1378 ± 0.56 kg/m3
- mass density ([4]; 298.15 K, x2 = 0.1993): 1326.76 ± 0.54 kg/m3
- mass density ([4]; 298.15 K, x2 = 0.2998): 1278.43 ± 0.5 kg/m3
- mass density ([4]; 298.15 K, x2 = 0.3996): 1233.17 ± 0.47 kg/m3
- mass density ([4]; 298.15 K, x2 = 0.5008): 1189.88 ± 0.45 kg/m3
- mass density ([4]; 298.15 K, x2 = 0.5995): 1149.94 ± 0.42 kg/m3
- mass density ([4]; 298.15 K, x2 = 0.7001): 1111.21 ± 0.4 kg/m3
- mass density ([4]; 298.15 K, x2 = 0.8002): 1074.73 ± 0.38 kg/m3
- mass density ([4]; 298.15 K, x2 = 0.8995): 1040.17 ± 0.37 kg/m3
- mass density ([4]; 298.15 K, x2 = 0.9501): 1023.08 ± 0.36 kg/m3

SMILES: O=S1OCCO1 [1,3,2-dioxathiolane, 2-oxide] + COC(=O)OC
- refractive index ([3]; 298.15 K, x2 = 0.0499): 1.4407 ± 0.0004
- refractive index ([3]; 298.15 K, x2 = 0.0997): 1.4365 ± 0.0004
- refractive index ([3]; 298.15 K, x2 = 0.2002): 1.4283 ± 0.0004
- refractive index ([3]; 298.15 K, x2 = 0.2999): 1.4202 ± 0.0004
- refractive index ([3]; 298.15 K, x2 = 0.4): 1.4123 ± 0.0004
- refractive index ([3]; 298.15 K, x2 = 0.4997): 1.4044 ± 0.0004
- refractive index ([3]; 298.15 K, x2 = 0.6004): 1.3965 ± 0.0004
- refractive index ([3]; 298.15 K, x2 = 0.6998): 1.3889 ± 0.0004
- refractive index ([3]; 298.15 K, x2 = 0.8009): 1.3811 ± 0.0004
- refractive index ([3]; 298.15 K, x2 = 0.9002): 1.3737 ± 0.0004
- refractive index ([3]; 298.15 K, x2 = 0.9505): 1.37 ± 0.0004
- mass density ([4]; 298.15 K, x2 = 0.0499): 1412.39 ± 0.46 kg/m3
- mass density ([4]; 298.15 K, x2 = 0.0997): 1392.6 ± 0.45 kg/m3
- mass density ([4]; 298.15 K, x2 = 0.2002): 1353.25 ± 0.44 kg/m3
- mass density ([4]; 298.15 K, x2 = 0.2999): 1314.96 ± 0.43 kg/m3
- mass density ([4]; 298.15 K, x2 = 0.4): 1277.01 ± 0.42 kg/m3
- mass density ([4]; 298.15 K, x2 = 0.4997): 1239.88 ± 0.41 kg/m3
- mass density ([4]; 298.15 K, x2 = 0.6004): 1202.89 ± 0.4 kg/m3
- mass density ([4]; 298.15 K, x2 = 0.6998): 1166.91 ± 0.4 kg/m3
- mass density ([4]; 298.15 K, x2 = 0.8009): 1130.5 ± 0.39 kg/m3
- mass density ([4]; 298.15 K, x2 = 0.9002): 1095.66 ± 0.38 kg/m3
- mass density ([4]; 298.15 K, x2 = 0.9505): 1078.06 ± 0.38 kg/m3

SMILES: O=S1OCCO1 [1,3,2-dioxathiolane, 2-oxide] + O=C1CCCO1
- refractive index ([3]; 298.15 K, x2 = 0.0501): 1.4443 ± 0.0004
- refractive index ([3]; 298.15 K, x2 = 0.1008): 1.4437 ± 0.0004
- refractive index ([3]; 298.15 K, x2 = 0.2006): 1.4425 ± 0.0004
- refractive index ([3]; 298.15 K, x2 = 0.2991): 1.4414 ± 0.0004
- refractive index ([3]; 298.15 K, x2 = 0.4102): 1.4402 ± 0.0004
- refractive index ([3]; 298.15 K, x2 = 0.4994): 1.4392 ± 0.0004
- refractive index ([3]; 298.15 K, x2 = 0.5998): 1.4382 ± 0.0004
- refractive index ([3]; 298.15 K, x2 = 0.701): 1.4373 ± 0.0004
- refractive index ([3]; 298.15 K, x2 = 0.7995): 1.4365 ± 0.0004
- refractive index ([3]; 298.15 K, x2 = 0.9002): 1.4356 ± 0.0004
- refractive index ([3]; 298.15 K, x2 = 0.9495): 1.4353 ± 0.0004
- mass density ([4]; 298.15 K, x2 = 0.0501): 1417.36 ± 0.39 kg/m3
- mass density ([4]; 298.15 K, x2 = 0.1008): 1401.19 ± 0.39 kg/m3
- mass density ([4]; 298.15 K, x2 = 0.2006): 1369.54 ± 0.38 kg/m3
- mass density ([4]; 298.15 K, x2 = 0.2991): 1338.59 ± 0.37 kg/m3
- mass density ([4]; 298.15 K, x2 = 0.4102): 1303.97 ± 0.37 kg/m3
- mass density ([4]; 298.15 K, x2 = 0.4994): 1276.38 ± 0.36 kg/m3
- mass density ([4]; 298.15 K, x2 = 0.5998): 1245.54 ± 0.35 kg/m3
- mass density ([4]; 298.15 K, x2 = 0.701): 1214.73 ± 0.35 kg/m3
- mass density ([4]; 298.15 K, x2 = 0.7995): 1184.91 ± 0.34 kg/m3
- mass density ([4]; 298.15 K, x2 = 0.9002): 1154.7 ± 0.34 kg/m3
- mass density ([4]; 298.15 K, x2 = 0.9495): 1139.97 ± 0.34 kg/m3

SMILES: O=S1OCCO1 [1,3,2-dioxathiolane, 2-oxide] + O=C1OCCO1
- refractive index ([3]; 318.15 K, x2 = 0.0492): 1.4358 ± 0.0004
- refractive index ([3]; 318.15 K, x2 = 0.0998): 1.435 ± 0.0004
- refractive index ([3]; 318.15 K, x2 = 0.2011): 1.4333 ± 0.0004
- refractive index ([3]; 318.15 K, x2 = 0.3): 1.4315 ± 0.0004
- refractive index ([3]; 318.15 K, x2 = 0.4024): 1.4297 ± 0.0004
- refractive index ([3]; 318.15 K, x2 = 0.5005): 1.4278 ± 0.0004
- refractive index ([3]; 318.15 K, x2 = 0.5994): 1.4259 ± 0.0004
- refractive index ([3]; 318.15 K, x2 = 0.6997): 1.4238 ± 0.0004
- refractive index ([3]; 318.15 K, x2 = 0.8005): 1.4217 ± 0.0004
- refractive index ([3]; 318.15 K, x2 = 0.8996): 1.4196 ± 0.0004
- refractive index ([3]; 318.15 K, x2 = 0.9494): 1.4185 ± 0.0004
- mass density ([4]; 318.15 K, x2 = 0.0492): 1403.48 ± 0.24 kg/m3
- mass density ([4]; 318.15 K, x2 = 0.0998): 1399.66 ± 0.24 kg/m3
- mass density ([4]; 318.15 K, x2 = 0.2011): 1391.76 ± 0.23 kg/m3
- mass density ([4]; 318.15 K, x2 = 0.3): 1383.61 ± 0.23 kg/m3
- mass density ([4]; 318.15 K, x2 = 0.4024): 1374.81 ± 0.23 kg/m3
- mass density ([4]; 318.15 K, x2 = 0.5005): 1366.04 ± 0.23 kg/m3
- mass density ([4]; 318.15 K, x2 = 0.5994): 1356.86 ± 0.23 kg/m3
- mass density ([4]; 318.15 K, x2 = 0.6997): 1347.14 ± 0.23 kg/m3
- mass density ([4]; 318.15 K, x2 = 0.8005): 1337 ± 0.23 kg/m3
- mass density ([4]; 318.15 K, x2 = 0.8996): 1326.62 ± 0.23 kg/m3
- mass density ([4]; 318.15 K, x2 = 0.9494): 1321.21 ± 0.23 kg/m3

SMILES: COC(=O)OC [dimethyl carbonate]
- mass density ([1]; 298.15 K): 1060.87 ± 0.14 kg/m3
- Normal melting temperature [1]: 4.37 ± 0.77 °C
- refractive index ([2]; 298.15 K): 1.3662 ± 0.0004

SMILES: CCOC(=O)OC [ethyl methyl carbonate]
- mass density ([1]; 298.15 K): 1006.88 ± 0.13 kg/m3
- Normal melting temperature [1]: -51.47 ± 0.77 °C
- refractive index ([2]; 298.15 K): 1.3754 ± 0.0004

SMILES: O=C1OCCO1 [ethylene carbonate]
- mass density ([1]; 318.15 K): 1315.7 ± 0.2 kg/m3
- Normal melting temperature [1]: 37.41 ± 0.77 °C
- refractive index ([2]; 318.15 K): 1.4172 ± 0.0004

SMILES: O=C1CCCO1 [γ-butyrolactone]
- mass density ([1]; 298.15 K): 1124.97 ± 0.15 kg/m3
- Normal melting temperature [1]: -41.87 ± 0.77 °C
- refractive index ([2]; 298.15 K): 1.4349 ± 0.0004
